3 compounds from patent US9705096B2, “Organic transistor, compound, organic semiconductor material for non-light-emitting organic semiconductor device, material for organic transistor, coating solution for non-light-emitting organic semiconductor device, organic semiconductor film for non-light-emitting organic semiconductor device, …” (FUJIFILM Corporation, priority 2014, dated 2017) can be followed below.

As a reminder, the solubility is the dissolved amount per volume that the medium holds.

SMILES strings stand for the structures. Some results are limits rather than exact numbers.

The nature of the data set: Solubility in toluene. The following applies: organic solvent or mixture, thermodynamic from solid; 20 mg compound mixed with toluene (1 mL). It is filed as physicochemical. The source says: A: The compound was completely dissolved.
B: A bit of the compound was left undissolved.
C: Most of the compound was left undissolved.
For `CCc1cc2sc3cc4sc5cc(CC)sc5c4cc3c2s1` [Comparative compound 1, reference compound], the solubility was under 20 mg/mL.

As for `CC(C)CCCC(C)CCc1cc2sc3cc4sc5cc(CCC(C)CCCC(C)C)sc5c4cc3c2s1` (stereo not drawn) [Compound 31], the solubility was over 20 mg/mL.

With `CC(C)CCCC(C)CCc1ccc(-c2cc3sc4cc5sc6cc(-c7ccc(CCC(C)CCCC(C)C)s7)sc6c5cc4c3s2)s1` (stereo not drawn) [Compound 33], the solubility was over 20 mg/mL.
